Experimental data published in paper PMC11685595, “Measuring plant cysteine oxidase interactions with substrates using intrinsic tryptophan fluorescence” (Scientific Reports, 2024).
Peptide text beside a SMILES is read from it.

How the values were obtained:
AtPCO4.Ni(II) = target: T1, AtPCO4.Ni(II) (Arabidopsis thaliana, UniProt Q9SJI9); assay: Plate-based intrinsic Trp fluorescence quenching binding assay, AtPCO4.Ni(II); conditions: 8 µM AtPCO4.Ni(II) (enzyme:metal 1:2), 0-750 µM peptide, anaerobic, 10 min, 25 °C, 50 mM Tris pH 7.5, 0.4 M NaCl, λex/λem 280/350 nm; ± Std. Error of fit, n = 3
T1 construct: His6 (cleaved yes); made in house
Procedure: (§1) Following affinity purification, the His6-tag was cleaved using TEV protease and the cleaved tag was removed using a HisTrap HP column (GE Healthcare). To remove the active site metal which co-purifies with PCO enzymes, concentrated protein fractions were dialysed into 50 mM Tris (pH 7.5), 0.4 M NaCl, 100 mM EDTA and 10 mM 1,10-Phenanthroline followed by dialysis into 50 mM Tris (pH 7.5), 0.4 M NaCl and 0.1% (w/v) Chelex® 100 resin to remove excess EDTA and 1,10-Phenanthroline. Dialysed protein was then purified with a HiLoad 26/600 Superdex 75 prep grade size exclusion column (GE Healthcare) equilibrated with 50 mM Tris (pH 7.5) and 0.4 M NaCl (herein termed assay buffer). Protein purity was assessed with SDS-PAGE. To check that Fe(II) was removed, activity assays of metal-removed protein were conducted as described previously.
(§2) Metal-removed AtPCO4/5 was incubated with Ni(II) (NiCl2.6H2O, Alfa Aesar) at enzyme:metal, 1:2 ratio and diluted to the desired volume in assay buffer to a final enzyme concentration of 8 µM, termed the enzyme master mix.

AtPCO5.Ni(II) = target: T2, AtPCO5.Ni(II) (Arabidopsis thaliana, UniProt Q9LXT4); assay: Plate-based intrinsic Trp fluorescence quenching binding assay, AtPCO5.Ni(II); conditions: 8 µM AtPCO5.Ni(II) (enzyme:metal 1:2), 0-750 µM peptide, anaerobic, 10 min, 25 °C, 50 mM Tris pH 7.5, 0.4 M NaCl, λex/λem 280/350 nm; ± Std. Error of fit, n = 3
T2 construct: His6 (cleaved yes); made in house
T2 sequence (Q9LXT4 whole entry): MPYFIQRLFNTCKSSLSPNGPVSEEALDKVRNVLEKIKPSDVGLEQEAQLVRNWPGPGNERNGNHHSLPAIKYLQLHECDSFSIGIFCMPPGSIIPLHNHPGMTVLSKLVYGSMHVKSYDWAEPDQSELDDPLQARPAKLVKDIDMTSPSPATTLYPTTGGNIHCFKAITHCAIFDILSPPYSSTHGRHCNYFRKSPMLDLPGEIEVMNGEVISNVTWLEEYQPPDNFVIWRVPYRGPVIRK
Procedure: as §1, §2

- Kd (AtPCO4.Ni(II)): 298 ± 37.7 µM
- Kd (AtPCO5.Ni(II)): 223 ± 10.3 µM
Structure (SMILES): CC[C@H](C)[C@H](NC(=O)[C@H](C)NC(=O)CNC(=O)CNC(=O)[C@@H](N)CS)C(=O)N[C@@H](CC(C)C)C(=O)N[C@@H](CO)C(=O)N[C@@H](CC(=O)O)C(=O)N[C@H](C(=O)N[C@H](C(=O)N[C@@H](C)C(=O)N1CCC[C@H]1C(=O)N[C@@H](CO)C(=O)N[C@@H](C)C(=O)O)[C@@H](C)CC)[C@@H](C)CC [HRE1_2-15] (H-CGGAILSDIIAPSA-OH)
